Measured values as given in patent EP1641803B1, “THIENOPYRIMIDINE DERIVATIVES AS POTASSIUM CHANNEL INHIBITORS” (Xention Limited, priority 2003, dated 2004).

These molecules were tested against hKv1.5 (Homo sapiens, UniProt P22460) (assay: Kv1.5 Autopatch Electrophysiology (whole cell patch-clamp)). Settings: compound at 1µM, room temperature (22-24°C), held at -80mV, step to 0mV for 1000ms, total charge measured.
Format: cell-based
Protocol: The external bathing solution contained (in mM): 150 NaCl, 10 KCl, […], 3 MgCl2, 1 CaCl2, 10 HEPES, pH 7.4. Patch pipettes were filled with an electrode solution of composition (in mM): 160 KCl, 0.5 MgCl2, 10 HEPES, 1 EGTA, pH 7.4 with KOH.
Compounds were dissolved in DMSO (100 %) and made up in the external bather at a concentration of 1µM. All experiments were conducted at room temperature (22-24°C).
A cell suspension (10 ml), with a density of 100,000 cells/ml, was aliquoted into a 15ml centrifuge tube and transferred to an incubator (37°C, 5% CO2) for approximately one hour before use. Following 60 min incubation, a tube was taken and centrifuged at 1000 rpm for 4 mins at room temperature. 9.5 ml supernatant was thence discarded, leaving a cell pellet at the bottom of the tube. The pellet was then resuspended using 100 µl of cold (4 °C), filtered (0.22 µm), 0.2 % BSA/bather solution (0.02g BSA/10ml bather). The bottom of the tube was manually agitated gently until the solution became cloudy with cells. The 100 µl cell resuspension solution was then stored on the bench at 4 °C (using a Peltier-based temperature control device) until used.
A length of capillary glass (1B150F-4, WPI) was dipped into the cell suspension solution, such that - 3 cm column of fluid was taken up by capillary action. A Ag/AgCl wire was dropped into the non-dipped end of the capillary also. The outside of the solution-filled end of the capillary was then dried and the capillary was loaded into the AutoPatch™. Borosilicate glass patch pipettes (from 1.5mm OD, thin-walled filamented, GC150-TF capillary glass, Harvard) were pulled using a DMZ pipette puller (Zeitz Instruments), and were back-filled using the internal pipette solution, being careful that no bubbles remain at the tip or in the body of the pipette. Patch pipettes typically had resistances of 2.3-3.5 MΩ. Once filled, the pipette tip and a proportion of the shaft (- 15 mm) were dipped into Sigmacote (Sigma). The recording pipette was then loaded into the AutoPatch™.
Automated patch-clamping was initiated by the operator, but thereafter AutoPatch.exe continued the experiment providing that pre-set conditions and criteria were satisfied.
Whole cell patch-clamp recordings were made using the AutoPatch™ rig, which incorporated an EPC9 amplifier (HEKA, Germany) under control of Pulse software (v8.54, HEKA, Germany), a motion controller with 2 translators (Newport, UK), valve controller (VF1) and a c-level suction device all at room temperature (22-24°C). This equipment was completely under the control of AutoPatch.exe and operator intervention was only made when there was a requirement to refill the drug reservoirs or to prevent the loss of a cell due to a technical error. Cells with an Rseries greater than 18 MΩ were discounted from the experiment.
Qualification stages prior to perfusion and drug application ensured that the observed current met the criteria for the experiment. Only those cells with an IK > 500 pA were used for experiments. Cells were continuously perfused with external solution at a flow rate of 1.8-2 ml/minute. […] Online analysis of the hKv1.5 current during the application of compounds was performed by the AutoPatch™ software. Voltage-step protocols and analysis of data was performed as described for conventional electrophysiology.
Electrophysiology voltage-step protocols and analysis of data was performed as follows. Data was sampled at 5kHz, and filtered with a -3 dB bandwidth of 2.5kHz. Cells were held at a voltage of -80mV. Currents were evoked to a voltage step for 1000ms in duration at 0mV every 5s. Currents were analysed using Pulsefit software (v8.54, HEKA, Germany), with the total charge measured during the whole of the voltage step. All other plots were produced using Igor Pro (WaveMetrics).

Chain of hKv1.5 (P22460 whole entry): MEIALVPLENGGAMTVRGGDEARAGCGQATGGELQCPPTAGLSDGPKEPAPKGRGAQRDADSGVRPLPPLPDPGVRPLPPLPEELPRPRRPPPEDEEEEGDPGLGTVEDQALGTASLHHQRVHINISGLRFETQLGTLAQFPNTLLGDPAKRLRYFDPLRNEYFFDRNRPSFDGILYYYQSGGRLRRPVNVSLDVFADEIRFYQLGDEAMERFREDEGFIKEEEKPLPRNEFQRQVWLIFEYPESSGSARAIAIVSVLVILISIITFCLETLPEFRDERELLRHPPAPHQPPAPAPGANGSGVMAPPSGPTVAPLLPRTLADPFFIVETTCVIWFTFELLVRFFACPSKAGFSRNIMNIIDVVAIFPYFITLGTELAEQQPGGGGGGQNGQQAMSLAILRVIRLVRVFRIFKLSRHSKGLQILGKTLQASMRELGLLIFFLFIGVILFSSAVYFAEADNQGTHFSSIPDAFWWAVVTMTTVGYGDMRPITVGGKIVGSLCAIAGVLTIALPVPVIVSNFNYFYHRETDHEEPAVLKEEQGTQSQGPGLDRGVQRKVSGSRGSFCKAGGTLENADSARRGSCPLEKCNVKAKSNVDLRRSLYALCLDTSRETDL

inhibition at 1 µM	% Inhibition at 1µM	SMILES
92.6%		COc1ccc(-c2csc3ncnc(NCc4ccccn4)c23)cc1 [Example 138, [5-(4-Methoxy-phenyl)-thieno[2,3-d]pyrimidin-4-yl]-pyridin-2-ylmethyl-amine]
78%		CC(Nc1ncnc2scc(-c3ccccc3)c12)c1ccccn1 (centres unmarked) [Example 149, (5-Phenyl-thieno[2,3-d]pyrimidin-4-yl)-(1-pyridin-2-yl-ethyl)-amine]
92%		Cc1cccnc1CNc1ncnc2scc(-c3ccccc3)c12 [Example 156, (3-methyl-pyridin-2-ylmethyl)-(5-phenyl-thieno[2,3-d]pyrimidin-4-yl)-amine]
80%		CCOC(=O)c1cccnc1CNc1ncnc2scc(-c3ccccc3)c12 [Example 160, 2-[(5-Phenyl-thieno[2,3-d]pyrimidin-4-ylamino)-methyl]-nicotinic acid ethyl ester]
97%		Cc1cccc(CNc2ncnc3sc(C)c(-c4ccccc4)c23)n1 [Example 166, 6-methyl-N-[(6-methylpyridin-2-yl)methyl]-5-phenylthieno[2,3-d]pyrimidin-4-amine]
99%		Cc1cccc(CNc2ncnc3sc(Br)c(-c4ccccc4)c23)n1 [Example 167, 6-bromo-N-[(6-methylpyridin-2-yl)methyl]-5-phenylthieno[2,3-d]pyrimidin-4-amine]
97.4%		COCCNc1nc(NCc2ccccn2)c2c(-c3ccccc3)csc2n1 [Example 189, N^2-(2-Methoxyethyl)-5-phenyl-N^4-(pyridin-2-ylmethyl)thieno[2,3-d]pyrimidine-2,4-diamine]
90%		Nc1nc(NCc2ccccn2)c2c(-c3ccccc3)csc2n1 [Example 192, 5-Phenyl-N-4-pyridin-2-ylmethyl-thieno[2,3-d]pyrimidine-2,4-diamine]
98.1%		CN(C)c1nc(NCc2ccccn2)c2c(-c3ccccc3)csc2n1 [Example 198, N^2,N^2-Dimethyl-5-phenyl-N^4-pyridin-2-ylmethyl-thieno[2,3-d]pyrimidine-2,4-diamine]
87%		OCC(O)CNc1nc(NCc2ccccn2)c2c(-c3ccccc3)csc2n1 (centres unmarked) [Example 214, 3-{5-Phenyl-4-[(pyridin-2-ylmethyl)-amino]-thieno[2,3-d]pyrimidin-2-ylamino}-propane-1,2-diol]
82%		CN1CCN(c2nc(NCc3ccccn3)c3c(-c4ccccc4)csc3n2)CC1 [Example 215, [2-(4-Methyl-piperazin-1-yl)-5-phenyl-thieno[2,3-d]pyrimidin-4-yl]-pyridin-2-ylmethyl-amine]
91%		CNC(=O)Cc1nc(NCc2ccccn2)c2c(-c3ccccc3)csc2n1 [Example 287, N-Methyl-2-{5-phenyl-4-[{pyridin-2-ylmethyl)amino]thieno[2,3-d]pyrimidin-2-yl}acetamide]
76%		CN(C)Cc1nc(NCc2ccccn2)c2c(-c3ccccc3)csc2n1 [Example 302, (2-Dimethylaminomethyl-5-phenylthieno[2,3-d]pyrimidin-4-yl)pyridin-2-ylmethylamine]
63%		c1ccc(-c2csc3nc(CN4CCOCC4)nc(NCc4ccccn4)c23)cc1 [Example 303, (2-Morpholin-4-ylmethyl-5-phenyl-thieno[2,3-d]pyrimidin-4-yl)-pyridin-2-ylmethyl-amine]
58%		CNCc1nc(NCc2ccccn2)c2c(-c3ccccc3)csc2n1 [Example 304, (2-Methylaminomethyl-5-phenyl-thieno[2,3-d]pyrimidin-4-yl)-pyridin-2-ylmethyl-amine]
94%		COCc1nc(NCc2ccccn2)c2c(-c3ccccc3)csc2n1 [Example 305, (2-Methoxymethyl-5-phenylthien[2,3-d]primidin-4-yl)pyridin-2-ylmethylamine]
98%		CN(C)c1ccc(-c2csc3ncnc(NCc4ccccn4)c23)cc1 [Example 315, [5-(4-Dimethylamino-phenyl)-thieno[2,3-d]pyrimidin-4-yl]-pyridin-2-ylmethyl-amine]
98%		Cc1ccc(-c2csc3ncnc(NCc4ccccn4)c23)cc1C [Example 316, [5-(3,4-Dimethyl-phenyl)-thieno[2,3-d]pyrimidin-4-yl]-pyridin-2-ylmethyl-amine]
98%		FC(F)(F)Oc1ccc(-c2csc3ncnc(NCc4ccccn4)c23)cc1 [Example 317, Pyridin-2-ylmethyl-[5-(4-trifluoromethoxy-phenyl)-thieno[2,3-d]pyrimidin-4-yl]-amine]
98%		Cc1ccc(-c2csc3ncnc(NCc4ccccn4)c23)cc1 [Example 318, Pyridin-2-ylmethyl-(5-p-tolyl-thieno[2,3-d]pyrimidin-4-yl)-amine]
	97.3%	c1ccc(CNc2ncnc3scc(-c4ccc5c(c4)OCO5)c23)nc1 [Example 319, (5-Benzo[1,3]dioxol-5-yl-thieno[2,3-d]pyrimidin-4-yl)-pyridin-2-ylmethyl-amine]
93%		COCOc1ccc(-c2csc3ncnc(NCc4ccccn4)c23)cc1 [Example 324, [5-(4-Methoxymethoxy-phenyl)-thieno[2,3-d]pyrimidin-4-yl]-pyridin-2-ylmethyl-amine]
83%		COC(=O)c1ccc(-c2csc3ncnc(NCc4ccccn4)c23)cc1 [Example 327, 4-{4-[(Pyridin-2-ylmethyl)-amino]-thieno[2,3-d]pyrimidin-5-yl}-benzoic acid methyl ester]
83%		COc1ccc(-c2csc3ncnc(NCc4ccccn4)c23)cn1 [Example 328, [5-(6-Methoxy-pyridin-3-yl)-thieno[2,3-d]pyrimidin-4-yl]-pyridin-2-ylmethyl-amine]
81%		Clc1ccc(-c2csc3ncnc(NCc4ccccn4)c23)c(Cl)c1 [Example 329, [5-(2,4-Dichloro-phenyl)-thieno[2,3-d]pyrimidin-4-yl]-pyridin-2-ylmethyl-amine]
79%		FC(F)(F)c1cc(-c2csc3ncnc(NCc4ccccn4)c23)ccc1Cl [Example 330, [5-(4-Chloro-3-trifluoromethyl-phenyl)-thieno[2,3-d]pyrimidin-4-yl]-pyridin-2-ylmethyl-amine]
